Structures are written as SMILES.

Data set [1] can be described thus: In vitro chemiluminescence kinetics of oxidation by H2O2. As to the method:
(§1) Solutions of 3 and luminol were prepared in 0.01 M PBS (pH of 7.4). For all ROS other than H2O2, the reaction was carried out by mixing 200 μL of the ROS solution (1.0×10^−3 M) with 800 μL of the solution of probe 3 or luminol (1.0×10^−6 M). The voltage of the photomultiplier tube (PMT) was set at −400 V. In the case of H2O2, 200 μL of its solution (1.0×10^−2 M) was used, and the voltage of PMT was set at −800 V; the other conditions were identical to those used for the other ROS.

Another data set concerns acute dermatitis. As to the kind of experiment: CLI of acute dermatitis induced by dimethylbenzene. It is filed as in vivo, mice. Conditions: 720 μg/kg; 30, 60, 90 min.
In a further data set the test system is gingival hemorrhage. As to the kind of experiment: CLI of gingival hemorrhage. The conditions noted are these: 200 μL of 2.0×10^−4 M. Type of data set: in vivo, nude mice. The method, then:
(§2) Additional experiments were carried out using test mice suffering from gingival hemorrhage and mechanical injury. For example, nude mice were fed with cooked yolk for 1 week until gingival hemorrhage was visually identified. Various images were acquired (e.g., 0, 20 (supine position), and 30 min (prone position)) after the injection of 200 μL of 2.0×10^−4 M probe 3 or luminol (data not shown). […] Also, images of injuries (e.g., mechanical crush and syringe needle piecing, both on the end to tail) were acquired 0, 20, and 40 min, respectively, after the injection of 200 μL of probe 3 (2.0×10^−4 M).

Data set [2] relates to raw 264.7 cells; human monocyte. As to the kind of experiment: In vitro response to phagocyte respiratory burst. It is filed as cell-based. Conditions: 5.0×10^−5 M; PMA or FMLP 100 μg/ml. As to the method: No chemiluminescence was detected in the absence of phorbol 12-myristate 13-acetate for (PMA) or N-formylmethionyl-leucyl-phenyl-alanine (FMLP). (a) CL kinetics resulting from the response of probe 3 to respiratory burst of raw 264.7 cells when stimulated with PMA (100 μg/ml). (b) CL kinetics resulting from the response of probe 3 to respiratory burst of human monocyte (10^6 cells/ml) in hank's when stimulated by FMLP (100 μg/ml). The kinetics curves were recorded with an MPI-A Chemiluminescence Analyzer with the use of probe 3 or luminol (5.0×10^−5 M).

The conditions of data set [3]: mouse, in vivo. The method, then: Nude mice (24-26 g) were anesthetized followed by intraperitoneal injection of 3 or 2 (in 0.01 M PBS pH 7.4) using a dose of 660 μg of 3 or 2 per kilogram of the mouse body weight. The mice were housed individually and received food ad libitum. Urine was collected every 1 to 2 hours, and the collected samples were diluted to appropriate concentration with PBS. Probe 3 in each urine sample was quantified by comparing the intensity of its chemiluminescence resulting from its oxidation by NaClO with those of standard solutions. […] The potential toxicity of the probe was further evaluated with a sample of 50 mice using a dose of probe 3 at 72 mg/kg body weight of mouse.

Data set [4] deals with HRP. As to the kind of experiment: Oxidation by H2O2 catalyzed by trace HRP in vitro. It is filed as biochemical, horseradish.
A short description of data set [5]: Solubility in alkaline and PBS solutions. Type of data set: physicochemical. Conditions: alkaline and phosphate-buffered saline solutions (PBS, pH=7.4). The method, then:
Oxidation of compound 3 was accompanied by vivid green luminescence when the excited oxidation product (compound 2) underwent deactivation (see FIG. 1).
Solids of compound 3 or luminol were dissolved in 0.01 M NaOH to a final concentration of 8.0×10^−3 M, and the resulting solutions were stored at 4° C. in the absence of light. The solutions were further diluted by using sterile phosphate-buffered saline (PBS, 0.01 M and pH 7.4) as desired in various studies. PMA was dissolved in DMSO to prepare 500 µg/ml solution. HRP was freshly prepared by dilution using sterile PBS.

A further data set concerns inflammation. As to the kind of experiment: CLI of inflammation caused by intramuscular injection of PBS. It is filed as in vivo, nude mice. Conditions: PBS intramuscularly two days prior; compared with 18FDG-PET/CT. As to the method:
Furthermore, inflammation caused by intramuscular injection of PBS was also clearly imaged using probe 3 and in comparison with results using PET/CT (data not shown). Nude mice were intramuscularly injected with PBS two days prior to said imaging experiments. For the verification of the induced inflammation, 18-Fluorodeoxyglucose-Positron emission tomography/Computed tomography (18FDG-PET/CT) scan, from feet to head, was performed 12 h after the CLI experiment. The test mouse was anesthetized with isoflurane inhalation followed by intraperitoneal injection of 3.7 MBq of ^18FDG. An uptake time of 60 min was allowed before acquisition.

Data set [6] has as its target T1, HRP (Armoracia rusticana, UniProt P00433).
T1 construct: purchased Sigma-Aldrich
T1 sequence (P00433 31-338 limits assumed): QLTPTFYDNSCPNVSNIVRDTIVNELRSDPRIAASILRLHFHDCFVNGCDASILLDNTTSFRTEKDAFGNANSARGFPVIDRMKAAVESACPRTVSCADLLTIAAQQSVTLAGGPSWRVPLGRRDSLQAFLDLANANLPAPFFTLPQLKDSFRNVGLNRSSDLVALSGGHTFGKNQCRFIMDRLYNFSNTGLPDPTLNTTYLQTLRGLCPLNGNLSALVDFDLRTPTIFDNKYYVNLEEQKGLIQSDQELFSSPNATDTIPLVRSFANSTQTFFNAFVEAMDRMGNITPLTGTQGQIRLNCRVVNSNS
The data set can be described thus: CLI of subcutaneously injected HRP in nude mice. It is filed as in vivo. The method, then:
CLI of HRP in the same nude mouse with the use of compound 3 as probe (7.2 mg per kg body weight, intraperitoneally injected). Against PBS-only control in the left foreleg, the total activity of HRP introduced into the right foreleg, the left hind leg, and the right hind leg were 0.0250, 0.125, and 0.250 U, respectively. The moment when the administration of 3 was completed was set as −20 min (panel (i)) with 0 min (panel (ii)) being the moment when the subcutaneous injection of HRP was finished. The circles in panel (ii) indicate both the sites of HRP introduction and the ROI for which photon-counting integration was performed.
Imaging of HRP was acquired in nude mice pre-injected with compound 3 (720 μg per kg body weight) against a control mouse intraperitoneally injected with luminol. […] To achieve significant CL intensity and to assure the accuracy of photon counting, the probe at a concentration of 720 μg/kg was used in subsequent studies in nude mice whose right foreleg, left hind leg, and right hind leg were injected with HRP of a total activity of 12.5 U, 25.0 U, and 50.0 U, respectively. Significant luminescence was produced and remained stable in a time window of 40 to 120 minutes following the introduction of HRP in each of the legs (data not shown).
In subsequent experiments, a dose of 7.2 mg/kg of compound 3 was used with which a total activity of HRP as low as 0.025 U could be detected. The CL produced intensified as the concentration of HRP increased, yielding a positive linear relationship.
Nude mice used in this work, each weighing 20-26 g, were obtained from the Laboratory Animal Center of the Fourth Military Medical University, China. Research and animal sacrifice protocols are in accordance with the principles and guidelines adopted by the Fourth Military Medical University. The mice were kept for an acclimatization period of 7 days under laboratory conditions (temperature maintained at 22±2° C., 12-hr cycles of alternating illumination and darkness, and free access to food and water) prior to any imaging experiments. […]

The next data set deals with T2, HRP-Ab (Armoracia rusticana, UniProt P00433).
T2 construct: purchased ZSGB-Bio Inc. ZB2305
T2 sequence (P00433 31-338 limits assumed): T1 sequence (P00433 31-338 limits assumed)
As to the kind of experiment: CLI of HRP-labeled goat anti-mouse IgG (HRP-Ab) in nude mice. It is filed as in vivo. As to the method:
The use of the probe was validated using an enzyme-linked immunosorbent assay (ELISA) by imaging in nude mice the HRP-labeled goat anti-mouse IgG (HRP-Ab), a commercially available and commonly used HRP-antibody conjugate. To assess the sensitivity of the CLI, different amounts of the conjugate were administered to three of the legs of a nude mouse with the left foreleg injected with PBS only being the control. […] The brightness of the emission is proportional to the amount of HRP-Ab present. […] However, in the two hind legs, whose total activity of HRP is at 0.015 and 0.030 U, respectively, the emission of light was vivid, and the reduction in luminescence intensity was only about 10% after 60 minutes following the probe administration.
Nude mice used in this work, each weighing 20-26 g, were obtained from the Laboratory Animal Center of the Fourth Military Medical University, China. Research and animal sacrifice protocols are in accordance with the principles and guidelines adopted by the Fourth Military Medical University. The mice were kept for an acclimatization period of 7 days under laboratory conditions (temperature maintained at 22±2° C., 12-hr cycles of alternating illumination and darkness, and free access to food and water) prior to any imaging experiments. Nude mice were anesthetized by isoflurane inhalation, following which 200 μL of a solution of compound 3 or luminol in PBS of pH 7.4 was injected intraperitoneally. For the imaging of HPR or HRP-Ab, the probe solution (2.0×10^−3 M) was first injected, followed by the subcutaneous injection 20 minutes after of PBS and HRP (variable amount in 0.01 M PBS) solutions into the legs of nude mice. The control experiments with the use of luminol were conducted under otherwise identical conditions. IVIS 200 bioluminescence imaging system (Caliper Life Sciences) (f/stop, 1; no optical filter) was used for all imaging experiments. Exposure time was set at 5 minutes with moderate sensitivity, and the binning and field of view (FOV) are 8 and 13.3 cm, respectively. […]

The next data set in a line: Acute toxicity in mice. The conditions noted are these: mouse, in vivo. From the text:
The results are summarized in (a).

Data set [7] is described as follows: In vitro chemiluminescence from oxidation by non-H2O2 ROS. Conditions: PBS pH 7.4, ROS 1.0×10^−3 M, probe 1.0×10^−6 M. The method, then:
as §1

The subject of data set [8] is mechanical crush and syringe needle piecing. The data set can be described thus: CLI of mechanical injuries on the tail. It is filed as in vivo, mice. Conditions: 200 μL of 2.0×10^−4 M; 0, 20, 40 min. As to the method:
as §2

As to `Nc1cccc2c(=O)[nH][nH]c(=O)c12` [luminol, Luminol, reference compound], the “time for luminescence to decay to the baseline” value in data set [1] (H2O2 1.0×10^−2 M, PMT −800 V) is listed as “about 600 s”. The “CLI of acute dermatitis” value in the data set on acute dermatitis was “failed to produce any detectable signals”.

Turning to `O=C(O)c1cc2c(=O)[nH][nH]c(=O)c2cc1-c1c2ccc(=O)cc-2oc2cc(O)ccc12` [compound 3], the duration of luminescence entry in data set [1] (H2O2 1.0×10^−2 M, PMT −800 V) is listed as “more than 18 days”. For the same compound, the “sensitivity toward H2O2 compared with the other ROS” value in data set [1] (PMT −800 V needed for detection) is given as “insensitivity”. Moreover, the “identification of sites of inflammation by luminescence” value (in the data set on gingival hemorrhage; in data set [8]) was “clearly identified” each time. The “sensitivity for detection of ROS compared with luminol” value in [2] is given as “much more sensitive”. Moreover, in [3], the “metabolism during the imaging procedure” value is “not quickly metabolized”. For the same compound, the “uptake, IP versus IV injection” value in [3] is “comparable uptakes”. Besides, the “probe cleared by uresis” value in [3] (nude) is recorded as “about 90%”. The “luminescence from oxidation by H2O2” value is given as “intense emission of a green light” in the data set on HRP [4] (HRP 5.0×10−5 mg/mL added) and “no detectable luminescence” in the data set with HRP [4] (no HRP, probe 5.0×10^−3 M, H2O2 1.0×10^−4 M). For the same compound, in the data set on acute dermatitis, the “CLI of acute dermatitis” value is recorded as “highly efficient”. For the same compound, the solubility entry in data set [5] is recorded as “readily soluble”. The imaging of inflammation entry in the data set on inflammation was “clearly showed inflammation”. Moreover, the “HRP activity at which production of CL appeared saturated” value on HRP [6] (720 μg/kg) was “about 25.0 U”. Moreover, the “lowest total activity of HRP detected” value on HRP [6] (7.2 mg/kg) was not above 0.025 U. The “dosage at which CL could be detected” value on HRP [6] (mice) is given as “about 2 μg/kg”. Further, the “reduction in luminescence intensity” value on HRP-Ab (7.2 mg/kg IP, hind legs 0.015 and 0.030 U, after 60 minutes) was “about 10%”. The “luminescence at HRP-Ab site” value at HRP-Ab (hind legs, 0.015 and 0.030 U) is on record as “vivid”; at HRP-Ab (right foreleg, 0.0030 U HRP-Ab) it was “inadequate to produce any significant photon count or luminescence”. In addition, the acute toxicity entry in the data set “Acute toxicity in mice” is “does not appear that the probe or the resulting luminophore has significant acute toxicity”. The “CL response / sensitivity to ROS compared with luminol” value was “more sensitive” in data set [7] and “much stronger responses” in [7] (listed as probe 3).
